# Measured values reported in US9540649B2, “Method for opening tight junctions” (The Provost, Fellows and Scholars of the College of the …, priority 2007, dated 2017).
# “Also recorded” adds a separate entry of the source.
# What was measured:
# occludin = assay: Occludin expression following suppression of claudin-5 (Western blot, immunohistochemistry); assay type: in vivo, C57/Bl6 mice; conditions: all time points post-delivery of claudin-5 siRNA
# [1] = MRI blood flow/volume (mean transit time, capillary transit time) in brain after claudin-5 siRNA; assay type: in vivo, mice; conditions: 24 and 48 hours post-high volume tail vein injection; up to 8 animals per group
# Method: 48 hours post-delivery of siRNA targeting claudin-5 or a non-targeting siRNA, a solution containing Gd-DTPA injected to the claudin-5 suppressed mice. Gd-DTPA was injected in the tail vein to assess whether Gd-TPA would permeate across the BBB. Following injection of siRNA and using appropriate controls, BBB integrity to a molecule of 742 Daltons (Gd-DTPA) was assessed via MRI, using a dedicated small rodent Bruker BioSpec 70/30 (i.e. 7 T, 30 cm bore) with an actively shielded USR Magnet. Mice were anaesthetised with isofluorane, and physiologically monitored (ECG, respiration and temperature) and placed on an MRI-compatible support cradle, which has a built-in system for maintaining the animal's body temperature at 37° C. The cradle was then positioned within the MRI scanner. Accurate positioning is ensured by acquiring an initial rapid pilot image, which is then used to ensure the correct geometry is scanned in all subsequent MRI experiments. […] Statistical analysis of all densitometric results of combined regions of the Cerebellum, Hippocampus and Cortex was performed using ANOVA, with significance represented by a P value of ≦0.05, and results are presented both graphically and in a quantitative image depicting the rate of Gd-DTPA deposition within the brain. […]
# This is calculated from the first moment or mean of the curve. […]
# claudin-5 [2] = assay: Western blot analysis of claudin-5 expression in brain after hydrodynamic tail vein delivery of siRNA; assay type: in vivo, C57/Bl6 mice
# Method: (§1) Rapid high pressure, high volume tail vein injections were carried out (Kiang et al., 2005). Wild type C57/Bl6 mice of weight 20-30 g were individually restrained inside a 60-ml volume plastic tube. The protruding tail was warmed for 5 minutes prior to injection under a 60-W lamp and the tail vein clearly visualized by illumination from below. 20 micrograms of targeting siRNA, or non-targeting siRNA made up with PBS to a volume in mls of 10% of the body weight in grams or PBS alone, was injected into the tail vein at a rate of 1 ml/sec using a 26-gauge (26 G 3/8) needle. After 24, 48, 72 hours and 1 week, protein was isolated from total brain tissue by crushing brains to a fine powder in liquid N2 and subsequently using lysis buffer containing 62.5 mM Tris, 2% SDS, 10 mM Dithiothreitol, 10 μl protease inhibitor cocktail/100 ml (Sigma Aldrich, Ireland). The homogenate was centrifuged at 10,000 g for 20 mins @4° C., and the supernatant was removed for claudin-5 analysis.
# Briefly, protein samples were separated on 12% SDS-PAGE gels and transferred to nitrocellulose membrane overnight using a wet electroblot apparatus. Efficiency of protein transfer was determined using Ponceau-S solution (Sigma Aldrich, Ireland). Non-specific binding sites were blocked by incubating the membrane at room temperature with 5% non-fat dry skimmed milk in Tris-buffered saline (TBS) (0.05 M Tris, 150 mM NaCl, pH 7.5) for 2 hours. Membranes were briefly washed with TBS, and incubated with polyclonal rabbit anti-claudin-5 (Zymed Laboratories, San Francisco, Calif.) (1:500) or polyclonal rabbit anti-β-actin (Abcam, Cambridge, UK) (1:1000). Antibodies were incubated with membranes overnight at 4° C. Membranes were washed with TBS, and incubated with a secondary anti-rabbit (IgG) antibody with Horse-Radish-Peroxidase (HRP) conjugates (1:2500), for 3 hours at room temperature. Immune complexes were detected using enhanced chemiluminescence (ECL).
# claudin-1 = assay: Claudin-1 expression following suppression of claudin-5 (Western blot, double immunostaining); assay type: in vivo, C57/Bl6 mice
# claudin-5 [3] = assay: Immunohistochemical analysis of claudin-5 expression and localisation in brain microvessels; assay type: in vivo, C57/Bl6 mice
# Method: as §1
# Brain cryosections were blocked with 5% Normal Goat Serum (NGS) in PBS for 20 mins at room temperature. Primary antibody (Rabbit anti-Claudin-5, Zymed, California) was incubated on sections overnight at 4° C. […] A secondary rabbit IgG-Cy3 antibody was incubated with the sections at 37° C. for 2 hours followed by 3 washes with PBS. All sections were counterstained with DAPI for 30 seconds at a dilution of 1:5000 of a stock 1 mg/ml solution. Analysis of stained sections was performed with an Olympus FluoView™ FV1000 Confocal microscope.
# Tie-2 = Tie-2 expression following suppression of claudin-5 (Western blot); assay type: in vivo, C57/Bl6 mice; conditions: any time point post delivery of claudin-5 siRNA
substance,measurement,setting,value
"claudin-5 siRNA: siRNA, sense CGUUGGAAAUUCUGGGUCUUU (SEQ ID NO: 1), antisense AGACCCAGAAUUUCCAACGUU (SEQ ID NO: 2) (listed as RNA, chemistry not given here)","occludin expression, Western blot",occludin,remain un-changed at all time points
same,"blood flow / blood volume in major brain vessels and capillaries (MTT, CTT), MRI",[1],no significant differences in blood flow; also recorded: not observing any difference in blood flow or blood volume
same,"claudin-5 expression, Western blot, brain","claudin-5 [2]; 24 hours post delivery of 20 μg siRNA, vs un-injected, PBS and non-targeting siRNA controls",decrease in expression; also recorded: markedly decreased
same,"claudin-5 expression, Western blot, brain","claudin-5 [2]; 48 hours post delivery of 20 μg siRNA, vs controls",suppression was also evident
same,"claudin-5 expression, Western blot, brain","claudin-5 [2]; 48 hours post delivery of 20 μg siRNA, vs controls, listed as CLDN5 siRNA",significant decreases in Claudin-5 expression
same,"claudin-5 expression, Western blot, brain","claudin-5 [2]; 48 hours post delivery of 20 μg siRNA, vs controls, listed as siRNA targeting claudin-5",maximum suppression
same,"claudin-5 expression, Western blot, brain","claudin-5 [2]; 72 hours post delivery of 20 μg siRNA, vs controls, listed as CLDN5 siRNA",levels of expression appeared similar to those observed in the control groups
same,"time at which claudin-5 expression returns to normal, Western data",claudin-5 [2]; after injection,returning to normal between 72 hours and 1 week
same,"claudin-1 (23 kDa) expression, Western blot","claudin-1; 24, 48, 72 hours and 1 week post delivery of claudin-5 siRNA",no changes at any time points
same,"claudin-1 expression, double immunostaining in brain cryosections",claudin-1; each time point post-injection of claudin-5 siRNA,remain similar to those observed in the control groups
same,"claudin-5 staining pattern in brain microvessels, immunohistochemistry",claudin-5 [3]; 24 hours post delivery,decreased and non-continuous; also recorded: less intense
same,"claudin-5 staining pattern in brain microvessels, immunohistochemistry",claudin-5 [3]; 48 hours post injection,striking decrease in expression; also recorded: marked decrease; also recorded: dramatically reduced
same,"claudin-5 staining pattern in brain microvessels, immunohistochemistry","claudin-5 [3]; 48 hours post injection, listed as siRNA targeting claudin-5",highly fragmented and discontinuous
same,"claudin-5 staining pattern in brain microvessels, immunohistochemistry",claudin-5 [3]; 72 hours post-injection,"evident, yet non-continuous; also recorded: evident, yet not as intense as the control groups; also recorded: still attenuated"
same,"Tie-2 (140 kDa) expression, Western blot",Tie-2,no distinct changes
